In patent US10266526B2, “Substituted 1,2,3-triazoles as SMYD inhibitors for treating cancer” (EPIZYME, INC., priority 2014, dated 2019):

Target: SMYD2 (Homo sapiens (Human), UniProt Q9NRG4)
Assay: SMYD2 biochemical assay (SMYD2 enzyme assay on peptide substrate, 3H-SAM Flashplate)
Conditions: read-out: SMYD2 Biochem IC50; IC50 values are an average of n = 1 to n = 50

Sequence of SMYD2 (Q9NRG4 whole entry): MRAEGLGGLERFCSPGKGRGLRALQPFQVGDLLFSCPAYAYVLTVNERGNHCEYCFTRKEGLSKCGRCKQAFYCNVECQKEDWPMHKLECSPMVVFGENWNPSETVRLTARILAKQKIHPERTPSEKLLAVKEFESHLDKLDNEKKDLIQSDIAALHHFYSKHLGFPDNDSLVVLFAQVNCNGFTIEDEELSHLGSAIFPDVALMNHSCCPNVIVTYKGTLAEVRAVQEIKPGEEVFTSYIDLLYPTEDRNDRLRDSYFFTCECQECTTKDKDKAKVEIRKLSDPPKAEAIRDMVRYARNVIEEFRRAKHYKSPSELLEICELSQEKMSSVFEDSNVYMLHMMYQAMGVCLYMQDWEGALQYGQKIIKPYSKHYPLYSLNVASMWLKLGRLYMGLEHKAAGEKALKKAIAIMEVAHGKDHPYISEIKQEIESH

| IC50 | Compound |
| --- | --- |
| 4270 nM | O=C(NC1CN(C(CO)c2ccccc2)C1)c1cn(C2CC2)nn1 (stereo not drawn) [compound 674, 1-cyclopropyl-N-[1-(2-hydroxy-1-phenylethyl)azetidin-3-yl]-1H-1,2,3-triazole-4-carboxamide] |
| 907 nM | CC(c1ccccc1F)N1CC(NC(=O)c2cn(C3CC3)nn2)C1 (stereo not drawn) [compound 678, 1-cyclopropyl-N-{1-[1-(2-fluorophenyl)ethyl]azetidin-3-yl}-1H-1,2,3-triazole-4-carboxamide] |
| 1450 nM | COc1cccc(C(C)N2CC(NC(=O)c3cn(C4CC4)nn3)C2)c1 (stereo not drawn) [compound 679, 1-cyclopropyl-N-{1-[1-(3-methoxyphenyl)ethyl]azetidin-3-yl}-1H-1,2,3-triazole-4-carboxamide] |
| > 50000 nM | CC(c1ccc(C(F)(F)F)cc1)N1CC(NC(=O)c2cn(C3CC3)nn2)C1 (stereo not drawn) [compound 680, 1-cyclopropyl-N-(1-{1-[4-(trifluoromethyl)phenyl]ethyl}azetidin-3-yl)-1H-1,2,3-triazole-4-carboxamide] |
| 2130 nM | CC(c1ccccc1OC(F)(F)F)N1CC(NC(=O)c2cn(C3CC3)nn2)C1 (stereo not drawn) [compound 684, 1-cyclopropyl-N-(1-{1-[2-(trifluoromethoxy)phenyl]ethyl}azetidin-3-yl)-1H-1,2,3-triazole-4-carboxamide] |
| 3760 nM | COCCCN1CC(NC(=O)c2cn(C3CC3)nn2)C1 [compound 686, 1-cyclopropyl-N-[1-(3-methoxypropyl)azetidin-3-yl]-1H-1,2,3-triazole-4-carboxamide] |
| 5100 nM | COc1ccc(CC(C)N2CC(NC(=O)c3cn(C4CC4)nn3)C2)cc1OC (stereo not drawn) [compound 688, 1-cyclopropyl-N-{1-[1-(3,4-dimethoxyphenyl)propan-2-yl]azetidin-3-yl}-1H-1,2,3-triazole-4-carboxamide] |
| 1890 nM | COc1cc(F)ccc1C(C)N1CC(NC(=O)c2cn(C3CC3)nn2)C1 (stereo not drawn) [compound 689, 1-cyclopropyl-N-{1-[1-(4-fluoro-2-methoxyphenyl)ethyl]azetidin-3-yl}-1H-1,2,3-triazole-4-carboxamide] |
| 7990 nM | COc1ccc(C(F)(F)F)cc1C(C)N1CC(NC(=O)c2cn(C3CC3)nn2)C1 (stereo not drawn) [compound 690, 1-cyclopropyl-N-(1-{1-[2-methoxy-5-(trifluoromethyl)phenyl]ethyl}azetidin-3-yl)-1H-1,2,3-triazole-4-carboxamide] |
| 807 nM | CC(c1ccc2c(c1)OCO2)N1CC(NC(=O)c2cn(C3CC3)nn2)C1 (stereo not drawn) [compound 691, N-{1-[1-(2H-1,3-benzodioxol-5-yl)ethyl]azetidin-3-yl}-1-cyclopropyl-1H-1,2,3-triazole-4-carboxamide] |
| 172 nM | CC(c1ccc(OCc2ccccc2)cc1)N1CC(NC(=O)c2cn(C3CC3)nn2)C1 (stereo not drawn) [compound 692, N-(1-{1-[4-(benzyloxy)phenyl]ethyl}azetidin-3-yl)-1-cyclopropyl-1H-1,2,3-triazole-4-carboxamide] |
| 176 nM | CC(c1ccc(OCc2ccccc2)cc1)N1CC(NC(=O)c2cn(C3CC3)nn2)C1 (stereo not drawn) [compound 693, N-(1-{1-[4-(benzyloxy)phenyl]ethyl}azetidin-3-yl)-1-cyclopropyl-1H-1,2,3-triazole-4-carboxamide] |
| 787 nM | CCC(c1ccc(F)cc1)N1CC(NC(=O)c2cn(C3CC3)nn2)C1 (stereo not drawn) [compound 694, 1-cyclopropyl-N-{1-[1-(4-fluorophenyl)propyl]azetidin-3-yl}-1H-1,2,3-triazole-4-carboxamide] |
| 3690 nM | COc1ccc(C(C)N2CC(NC(=O)c3cn(C4CC4)nn3)C2)cc1OC (stereo not drawn) [compound 698, 1-cyclopropyl-N-{1-[1-(3,4-dimethoxyphenyl)ethyl]azetidin-3-yl}-1H-1,2,3-triazole-4-carboxamide] |
| 2670 nM | CCC(c1ccc(C(F)(F)F)cc1)N1CC(NC(=O)c2cn(C3CC3)nn2)C1 (stereo not drawn) [compound 700, 1-cyclopropyl-N-(1-{1-[4-(trifluoromethyl)phenyl]propyl}azetidin-3-yl)-1H-1,2,3-triazole-4-carboxamide] |
| 8030 nM | COCCOc1cccc(CN2CC(NC(=O)c3cn(C4CC4)nn3)C2)c1 [compound 701, 1-cyclopropyl-N-(1-{[3-(2-methoxyethoxy)phenyl]methyl}azetidin-3-yl)-1H-1,2,3-triazole-4-carboxamide] |
| 3580 nM | COCCOc1cccc(C(C)N2CC(NC(=O)c3cn(C4CC4)nn3)C2)c1 (stereo not drawn) [compound 702, 1-cyclopropyl-N-(1-{1-[3-(2-methoxyethoxy)phenyl]ethyl}azetidin-3-yl)-1H-1,2,3-triazole-4-carboxamide] |
| > 50000 nM | CC(C)N1CC(NC(=O)c2cn(CCO)nn2)C1 [compound 703, 1-(2-hydroxyethyl)-N-[1-(propan-2-yl)azetidin-3-yl]-1H-1,2,3-triazole-4-carboxamide] |
| 640 nM | CC(c1cccc(OCCO)c1)N1CC(NC(=O)c2cn(C3CC3)nn2)C1 (stereo not drawn) [compound 704, 1-cyclopropyl-N-(1-{1-[3-(2-hydroxyethoxy)phenyl]ethyl}azetidin-3-yl)-1H-1,2,3-triazole-4-carboxamide] |

| IC50 | Compound |
| --- | --- |
| 2040 nM | CNCCOc1cccc(C(C)N2CC(NC(=O)c3cn(C4CC4)nn3)C2)c1 (stereo not drawn) [compound 705, 1-cyclopropyl-N-[1-(1-{3-[2-(methylamino)ethoxy]phenyl}ethyl)azetidin-3-yl]-1H-1,2,3-triazole-4-carboxamide] |
| 1910 nM | O=C(NC1CN(CCCO)C1)c1cn(C2CC2)nn1 [compound 707, 1-cyclopropyl-N-[1-(3-hydroxypropyl)azetidin-3-yl]-1H-1,2,3-triazole-4-carboxamide] |
| > 50000 nM | CN(C)CCCN1CC(NC(=O)c2cn(C3CC3)nn2)C1 [compound 708, 1-cyclopropyl-N-{1-[3-(dimethylamino)propyl]azetidin-3-yl}-1H-1,2,3-triazole-4-carboxamide] |
| 377 nM | C[C@@H](c1ccccc1)N1CC(NC(=O)c2cn(C3CC3)nn2)C1 [compound 709, 1-cyclopropyl-N-{1-[(1S)-1-phenylethyl]azetidin-3-yl}-1H-1,2,3-triazole-4-carboxamide] |
| 341 nM | CC(c1ccc(F)cc1Cl)N1CC(NC(=O)c2cn(C3CC3)nn2)C1 (stereo not drawn) [compound 710, N-{1-[1-(2-chloro-4-fluorophenyl)ethyl]azetidin-3-yl}-1-cyclopropyl-1H-1,2,3-triazole-4-carboxamide] |
| 1010 nM | CCC(c1cccc(F)c1)N1CC(NC(=O)c2cn(C3CC3)nn2)C1 (stereo not drawn) [compound 711, 1-cyclopropyl-N-{1-[1-(3-fluorophenyl)propyl]azetidin-3-yl}-1H-1,2,3-triazole-4-carboxamide] |
| 12900 nM | COc1ccc2c(c1Cl)CCC2N1CC(NC(=O)c2cn(C3CC3)nn2)C1 (stereo not drawn) [compound 713, N-[1-(4-chloro-5-methoxy-2,3-dihydro-1H-inden-1-yl)azetidin-3-yl]-1-cyclopropyl-1H-1,2,3-triazole-4-carboxamide] |
| 2130 nM | CC(c1cc(F)cc(Cl)c1)N1CC(NC(=O)c2cn(C3CC3)nn2)C1 (stereo not drawn) [compound 714, N-{1-[1-(3-chloro-5-fluorophenyl)ethyl]azetidin-3-yl}-1-cyclopropyl-1H-1,2,3-triazole-4-carboxamide] |
| 1940 nM | CC(c1ncccn1)N1CC(NC(=O)c2cn(C3CC3)nn2)C1 (stereo not drawn) [compound 715, 1-cyclopropyl-N-{1-[1-(pyrimidin-2-yl)ethyl]azetidin-3-yl}-1H-1,2,3-triazole-4-carboxamide] |
| 30700 nM | CC(c1nccs1)N1CC(NC(=O)c2cn(C3CC3)nn2)C1 (stereo not drawn) [compound 716, 1-cyclopropyl-N-{1-[1-(1,3-thiazol-2-yl)ethyl]azetidin-3-yl}-1H-1,2,3-triazole-4-carboxamide] |
| 3060 nM | COCCn1cc(CN2CC(NC(=O)c3cn(C4CC4)nn3)C2)cn1 [compound 717, 1-cyclopropyl-N-(1-{[1-(2-methoxyethyl)-1H-pyrazol-4-yl]methyl}azetidin-3-yl)-1H-1,2,3-triazole-4-carboxamide] |
| 2950 nM | Cc1nc(C)c(C(C)N2CC(NC(=O)c3cn(C4CC4)nn3)C2)s1 (stereo not drawn) [compound 718, 1-cyclopropyl-N-{1-[1-(dimethyl-1,3-thiazol-5-yl)ethyl]azetidin-3-yl}-1H-1,2,3-triazole-4-carboxamide] |
| 4410 nM | O=C(NC1CN(C2CCc3cc(Cl)ccc32)C1)c1cn(C2CC2)nn1 (stereo not drawn) [compound 719, N-[1-(5-chloro-2,3-dihydro-1H-inden-1-yl)azetidin-3-yl]-1-cyclopropyl-1H-1,2,3-triazole-4-carboxamide] |
| 23300 nM | C[C@H](c1ccccc1)N1CC(NC(=O)c2cn(C3CC3)nn2)C1 [compound 720, 1-cyclopropyl-N-{1-[(1R)-1-phenylethyl]azetidin-3-yl}-1H-1,2,3-triazole-4-carboxamide] |
| > 50000 nM | CC(C)N1CC(NC(=O)c2cn(CCN)nn2)C1 [compound 723, 1-(2-aminoethyl)-N-[1-(propan-2-yl)azetidin-3-yl]-1H-1,2,3-triazole-4-carboxamide] |
| 1270 nM | COc1ccnc(C(C)N2CC(NC(=O)c3cn(C4CC4)nn3)C2)c1 (stereo not drawn) [compound 724, 1-cyclopropyl-N-{1-[1-(4-methoxypyridin-2-yl)ethyl]azetidin-3-yl}-1H-1,2,3-triazole-4-carboxamide] |
| 1020 nM | COc1cccnc1C(C)N1CC(NC(=O)c2cn(C3CC3)nn2)C1 (stereo not drawn) [compound 725, 1-cyclopropyl-N-{1-[1-(3-methoxypyridin-2-yl)ethyl]azetidin-3-yl}-1H-1,2,3-triazole-4-carboxamide] |
| 10700 nM | CNC(=O)c1cccc(CN2CC(NC(=O)c3cn(C4CC4)nn3)C2)c1 [compound 726, 1-cyclopropyl-N-(1-{[3-(methylcarbamoyl)phenyl]methyl}azetidin-3-yl)-1H-1,2,3-triazole-4-carboxamide] |
| 7300 nM | NC(=O)c1cccc(CN2CC(NC(=O)c3cn(C4CC4)nn3)C2)c1 [compound 727, N-{1-[(3-carbamoylphenyl)methyl]azetidin-3-yl}-1-cyclopropyl-1H-1,2,3-triazole-4-carboxamide] |

| Compound | IC50 |
| --- | --- |
| CCCCOc1ccc(C(C)N2CC(NC(=O)c3cn(C4CC4)nn3)C2)cc1 (stereo not drawn) [compound 681, N-{1-[1-(4-butoxyphenyl)ethyl]azetidin-3-yl}-1-cyclopropyl-1H-1,2,3-triazole-4-carboxamide] | 1290 nM |
